US8383608B2, “Imidazolidine compounds as androgen receptor modulators” (Dart Therapeutics LLC, priority 2008, dated 2013)
Like-named read-outs stand apart in the source and are kept apart here.

Key:
[1] = test system: castrated immature young rats; test: Adapted model of Hershberger's test; format: in vivo, Sprague Dawley rats; conditions: Rattus norvegicus, po, 96 h, ORX control = 0%, SHAM control = 100%, per os daily for 4 days, dose tested 30 mg/kg
[2] = Determination of absolute bioavailability (restricted PK profile, oral and intravenous); format: in vivo; conditions: male, Sprague-Dawley, rat, plasma, po, 10 mg/kg, absolute bioavailability (F), male Sprague Dawley rats, oral 10 mg/kg AUC(0-6 h) vs intravenous 3 mg/kg AUC(0-3 h); read-out: Bioavailability
Description: To screen rapidly imidazolidines derivatives based on their absolute bioavailabity, restricted pharmacokinetic profile with only fours sampling time points after oral and intravenous route is investigated in Sprague Dawley rats as follows: each test compound is dosed orally (10 mg/kg) and intravenously (3 mg/kg) to groups of 3 male Sprague Dawley rats. Oral doses are administered as solution in EtOH/PEG400/H2O (1/79/20; v/v) by esophageal gavage (2 mg/mL; 5 mL/kg) and intravenous dose is given as solution in DMSO/PEG400/H2O (1/65/34; v/v) as a bolus in the tail vein (3 mg/mL; 1 mL/kg). Before oral dosing, animals are deprived of food (water ad libitum) for at least 16 hours before the start of the study and 6 hours after administration.
Blood is collected at the retro-orbital sinus into polypropylene tubes (Li-heparinate) at +4° C. at the following sampling-times: 0.083, 0.25, 1 and 3 h after intravenous injection and 0.25, 1, 3 and 6 hours after oral dosing. Three (3) animals are sampled per time-point; each animal being sampled four times. After centrifugation at 5000 rpm for 10 min at +4° C., plasma is collected into polypropylene tubes and kept frozen at −20° C. pending assays. Plasma samples are assayed by a LC-MS/MS method with a lower limit of quantification of 1 to 10 ng/mL depending on the compound (volume of plasma: 100 μL).
A LC-MS/MS method for quantification in heparinized plasma was developed for each test compound. Sample preparation consists of a precipitation of plasma proteins with methanol and filtration by centrifugation of supernatant on Captiva deep-well 96 0.2 μm filter plates. Water was added to methanol supernatant phase prior to analysis by liquid chromatography (Pursuit 5 C18 20×2.0 mm VARIAN, 2 μL loop, gradient Water/Methanol (90/10 to 0/100) over 1.7 min) with turboionspray tandem mass spectrometry (API4000) in negative mode using multiple reaction monitoring. The method includes 8 standard and 3 quality control levels with lower limit of quantification corresponding to first standard level.
Exposures are determined using a non compartmental model (WinNonLin 2.1) and the absolute bioavailability (F) is calculated as follows: [AUC(0-6 h) oral*3 mg/kg]/AUC(0-3 h) IV 10 mg/kg] and expressed in percentage.

[3] = biological target: T1, human androgen receptor (hAR) (Homo sapiens, UniProt P10275); test: Functional response (transactivation) test in HALP2 cells (HeLa stably expressing hAR and ARE-luciferase reporter); format: cell-based; conditions: HALP2 cells; for Emax: HeLa, maximal activation by the compound compared with DHT alone (100%), read-out: % effect relative to DHT (100%)
T1 construct: expressed in transfected cells
T1 sequence (P10275 1-920): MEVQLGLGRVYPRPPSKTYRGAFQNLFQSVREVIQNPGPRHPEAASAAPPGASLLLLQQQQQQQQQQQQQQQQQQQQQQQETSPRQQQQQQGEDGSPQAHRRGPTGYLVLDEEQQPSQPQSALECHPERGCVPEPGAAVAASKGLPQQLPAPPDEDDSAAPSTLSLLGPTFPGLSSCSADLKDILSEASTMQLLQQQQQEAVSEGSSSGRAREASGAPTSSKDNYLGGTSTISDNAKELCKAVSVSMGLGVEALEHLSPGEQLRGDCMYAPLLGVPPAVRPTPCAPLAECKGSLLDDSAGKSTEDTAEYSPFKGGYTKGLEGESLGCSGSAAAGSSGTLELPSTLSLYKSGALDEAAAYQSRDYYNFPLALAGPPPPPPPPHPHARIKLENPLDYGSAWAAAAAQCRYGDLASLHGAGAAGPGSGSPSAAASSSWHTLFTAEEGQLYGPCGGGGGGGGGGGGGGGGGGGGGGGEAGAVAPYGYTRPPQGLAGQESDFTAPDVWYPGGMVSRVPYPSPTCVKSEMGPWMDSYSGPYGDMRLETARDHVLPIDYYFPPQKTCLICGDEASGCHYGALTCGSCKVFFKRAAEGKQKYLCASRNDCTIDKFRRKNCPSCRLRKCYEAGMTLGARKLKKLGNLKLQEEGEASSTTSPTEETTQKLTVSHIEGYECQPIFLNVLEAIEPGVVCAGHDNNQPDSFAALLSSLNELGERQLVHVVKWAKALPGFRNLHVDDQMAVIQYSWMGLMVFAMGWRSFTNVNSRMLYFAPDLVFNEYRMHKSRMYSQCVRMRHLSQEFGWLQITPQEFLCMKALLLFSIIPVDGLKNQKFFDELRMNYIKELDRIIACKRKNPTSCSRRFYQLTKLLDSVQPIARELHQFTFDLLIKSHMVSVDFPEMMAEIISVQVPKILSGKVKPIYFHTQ
Text: This test constitutes a method of identifying pure or partial agonists which mimic the effects of natural hormones, such as DHT (dihydrotestosterone) in the present case or, on the other hand, antagonists which inhibit them.
For this transactivation test, plasmids encoding a reporter gene and the human androgen receptor (hAR) are introduced together by transfection into the HeLa cell line. The reporter plasmid contains luciferase cDNA under the control of the AREs contained in the promoter sequences of the probasin gene (3xpbAREminicoll-luciferase/pGL3-puro). The expression of the reporter gene constitutes an indication of the transcriptional activity of hAR. It also encodes a protein allowing the cells expressing it to resist a treatment with puromycin. The plasmid encoding hAR contains the cDNA of hAR under the control of the Cytomegalovirus (CMV) promoter. It also encodes a protein allowing the cells expressing it to resist a treatment with neomycin. The treatment of cells with increasing amounts of potentially agonistic compounds will increase the expression of the reporter gene. To detect antagonists, on the other hand, increasing doses of test compounds are tested in the presence of […] of DHT. The expression of the reporter gene, which is constant for each dose of DHT, decreases when the concentration of the test compounds increases.
The functional response test is conducted on 96-well plates. The HALP2 cells are seeded (20,000 cells per well) in culture medium (DMEM with phenol red, 1% de Pen-Strep, 1% of non-essential amino acids, 10% of fetal bovine serum, 400 μg/mL Geneticin and 0.150 puromycin) on day 1. After 24 hours incubating at 37° C., 5% CO2, high humidity (day 2) the medium is removed and refreshed with test medium (DMEM without phenol red supplemented, 1% de Pen-Strep, 1% of non-essential amino acids and 5% of desteroidised foetal bovine serum). After another 24 hours incubating at 37° C., 5% CO2, high humidity (day 3), the medium is renewed once more before the phase of stimulation.
The cells are placed in contact with the compounds for 24 hours at 37° C., 5% CO2, high humidity. On day 4 the medium is then removed and the luciferase activity reading reagent is placed in contact with the cells in accordance with the manufacturer's instructions (SteadyLite, Perkin-Elmer). The luminescence produced is detected on an Envision reader (Perkin-Elmer). […]
The determination of the relative agonism/antagonism of a compound is obtained by comparing the maximal activation obtained with said compound and the activation obtained with DHT alone (100%).

[4] = levator ani weight, read-out: Anabolic activity %
[5] = ventral prostate weight, read-out: Androgenic activity % (Prostate)

SMILES	response vs control in vivo at 30 mg/kg [1, 4]	response vs control in vivo at 30 mg/kg [1, 5]	bioavailability [2]	Emax [3]	EC50 ([3]; agonism: concentration inducing 50% of the maximum agonistic effect of the tested compound, 24 hours, read-out: EC50)
CN1C(=O)N(c2ccc(C#N)c(C(F)(F)F)c2)C(=O)C1(CO)c1ccc(F)cc1 (centres unmarked) [Example 6, 4-[2,5-Dioxo-4-(4-fluorophenyl)-4-(hydroxymethyl)-3-methylimidazolidin-1-yl]-2-trifluoromethylbenzonitrile]	25 to 50%	0.5 to 25%	50 to 90%	21 to 40%	11 to 100 nM
CN1C(=O)N(c2ccc(C#N)c(C(F)(F)F)c2)C(=O)[C@]1(CO)c1ccccc1 [Example 11, (R)-4-[2,5-Dioxo-4-(hydroxymethyl)-3-methyl-4-phenylimidazolidin-1-yl]-2-trifluoromethylbenzonitrile]	50 to 75%	0.5 to 25%	–	0 to 5%	–
